Data reported in patent US9982005B2, “Macrolides and methods of their preparation and use” (President and Fellows of Harvard College, priority 2013, dated 2018).
≈ marks a conversion by molar mass, not a printed value. Where two headings read alike, the source gives them in different places.

Experiments:
Assay type in all cases: cell-based
[1] = tested on: S. aureus (Newman, clinical isolate); assay: MIC, S. aureus Newman; settings: Staphylococcus aureus
Excerpt: (§1) We have collected MIC data for a total of 50 novel macrolides that this platform has produced against over 21 unique strains of B. subtilis, E. coli, S. aureus, S. pneumoniae, and H. influenzae, including several multidrug-resistant strains, with a special focus on macrolide resistant mechanisms (vide supra). Azithromycin was included as a control macrolide. CLSI standard procedures for broth dilution MIC determination were used. […] These genotypes can be constitutive or inducible. The finding that C4-epi (unnatural) isomers of the “azaketolide” macrolide class have enhanced activities relative to C4 natural isomers is very exciting.

[2] = tested on: E. coli (MC4100); assay: MIC, E. coli MC4100; settings: Escherichia coli
Excerpt: as §1

[3] = tested on: E. coli strains; assay: MIC against E. coli strains (Table M7); settings: Escherichia coli, ATCC25922, E. coli ATCC 25922
How it was run: (§2)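 Standard CLSI broth dilution method used for MIC determination. Control: azithromycin.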

[4] = tested on: S. aureus strains; assay: MIC against S. aureus strains (Table M7); settings: Staphylococcus aureus
How it was run: as §2

[5] = tested on: S. pneumoniae strains; assay: MIC against S. pneumoniae strains (Tables M7, M8); settings: Streptococcus pneumoniae
Excerpt: CLSI standard procedures for broth dilution MIC determination were used. […] These genotypes can be constitutive or inducible.

[6] = tested on: E. faecalis strains; assay: MIC against E. faecalis strains (Table M8); settings: Enterococcus faecalis, E. faecalis 29212
[7] = tested on: A. baumannii strains; assay: MIC against A. baumannii strains (Table M8); settings: Acinetobacter baumannii, BAA747, A. baumannii BAA747-1
[8] = tested on: K. pneumoniae strains; assay: MIC against K. pneumoniae strains (Table M8); settings: Klebsiella pneumoniae, K. pneumoniae 10031
[9] = tested on: H. influenzae strains; assay: MIC against H. influenzae strains (Table M8); settings: Haemophilus influenzae
How it was run: as §2

[10] = S. aureus (Neuman, clinical isolate), round 2
[11] = ATCC29213, S. aureus ATCC 29213, read-out: MIC S. aureus (ATCC 29213)
[12] = S. aureus 506, read-out: MIC S. aureus (506)
[13] = S. aureus 1708, read-out: MIC S. aureus (1708)
[14] = USA300, S. aureus USA300, read-out: MIC S. aureus (USA300)
[15] = S. pneumoniae 160, read-out: MIC S. pneumonae (160)
[16] = S. pneumoniae 1509, read-out: MIC S. pneumoniae (1509)
[17] = S. pneumoniae 1533, read-out: MIC S. pneumoniae (1533)
[18] = S. pneumoniae 1537, read-out: MIC S. pneumoniae (1537)
[19] = S. pneumoniae 49619, read-out: MIC S. pneumoniae (49619)
[20] = H. influenzae 49247, read-out: MIC H. influenzae (49247)
[21] = H. influenzae 49766, read-out: MIC H. influenzae (49766)
[22] = S. aureus (Newman, clinical isolate), round 1

Which MIC [1, 10] does the source give for CC[C@H]1OC(=O)[C@H](C)C(=O)[C@H](C)[C@@H](O[C@@H]2OC(C)CC(N(C)C)C2O)/C(C)=C/CN(C)[C@H](C)[C@H]2N(CCCCn3cc(-c4cccc(N)c4)nn3)C(=O)O[C@]12C (stereo partly shown) [FSM-30633] here?
The MIC was greater than 32 µg/mL.

And the MIC ([2]; round 2, read-out: MIC)?
The MIC was greater than 32 µg/mL.

What about the MIC [3] of the same compound?
Its MIC is greater than 32 µg/mL.

And the MIC [4, 11]?
The MIC was greater than 32 µg/mL.

What about the MIC [4, 12] of the same compound?
The MIC was greater than 32 µg/mL.

What about the MIC [4, 13] of the same compound?
The MIC was greater than 32 µg/mL.

What about the MIC [4, 14] of the same compound?
Its MIC is greater than 32 µg/mL.

And the MIC [5, 15]?
Its MIC is greater than 32 µg/mL.

And the MIC [5, 16]?
The MIC was greater than 32 µg/mL.

And the MIC [5, 17]?
Its MIC is greater than 32 µg/mL.

What about the MIC [5, 18] of the same compound?
The MIC was greater than 32 µg/mL.

What about the MIC [5, 19] of the same compound?
Its MIC is greater than 32 µg/mL.

What about the MIC [6] of the same compound?
The MIC was greater than 32 µg/mL.

And the MIC [7]?
The MIC was greater than 32 µg/mL.

And the MIC [8]?
Its MIC is greater than 32 µg/mL.

And the MIC [9, 20]?
The MIC was 32 µg/mL (≈ 40.9 µM).

What about the MIC [9, 21] of the same compound?
Its MIC is greater than 32 µg/mL.

For CC[C@H]1OC(=O)[C@H](C)C(=O)[C@H](C)[C@@H](O[C@@H]2OC(C)CC(N(C)C)C2O)[C@](C)(OC)C[C@@H](C)CN[C@H](C)[C@H]2N(CCCn3cc(-c4cccc(N)c4)nn3)C(=O)O[C@]12C (stereo partly shown) [FSM-40347], which MIC [1, 22] is on record?
Its MIC is 2 µg/mL (≈ 2.46 µM).

What about the MIC ([2]; round 1, read-out: MIC) of the same compound?
The MIC was 8 µg/mL (≈ 9.83 µM).

And the MIC [3]?
The MIC was 8 µg/mL (≈ 9.83 µM).

What about the MIC [4, 11] of the same compound?
Its MIC is 4 µg/mL (≈ 4.91 µM).

And the MIC [4, 12]?
Its MIC is greater than 32 µg/mL.

What about the MIC [4, 13] of the same compound?
The MIC was 4 µg/mL (≈ 4.91 µM).

What about the MIC [4, 14] of the same compound?
Its MIC is 4 µg/mL (≈ 4.91 µM).

And the MIC [5, 15]?
Its MIC is 0.125 µg/mL (≈ 0.154 µM).

What about the MIC [5, 16] of the same compound?
The MIC was 32 µg/mL (≈ 39.3 µM).

And the MIC [5, 17]?
Its MIC is greater than 32 µg/mL.

And the MIC [5, 18]?
The MIC was greater than 32 µg/mL.

And the MIC [5, 19]?
Its MIC is 0.25 µg/mL (≈ 0.307 µM).

What about the MIC [6] of the same compound?
The MIC was 0.25 µg/mL (≈ 0.307 µM).

And the MIC [7]?
Its MIC is 8 µg/mL (≈ 9.83 µM).

And the MIC [8]?
The MIC was 2 µg/mL (≈ 2.46 µM).

And the MIC [9, 20]?
Its MIC is 0.5 µg/mL (≈ 0.614 µM).

And the MIC [9, 21]?
Its MIC is 4 µg/mL (≈ 4.91 µM).

What does the source list for CC[C@H]1OC(=O)[C@H](C)C(=O)[C@H](C)[C@@H](O[C@@H]2OC(C)CC(N(C)C)C2O)[C@](C)(OC)C[C@@H](C)CN[C@H](C)[C@H]2N(CCCCCn3cc(-c4cccc(N)c4)nn3)C(=O)O[C@]12C (stereo partly shown) [FSM-40349]?
MIC [1, 22]: 2 µg/mL (≈ 2.38 µM); MIC ([2]; round 1, read-out: MIC): 16 µg/mL (≈ 19 µM); MIC [3]: 8 µg/mL (≈ 9.5 µM); MIC [4, 11]: 1 µg/mL (≈ 1.19 µM); MIC [4, 12]: > 32 µg/mL; MIC [4, 13]: 1 µg/mL (≈ 1.19 µM); MIC [4, 14]: 2 µg/mL (≈ 2.38 µM); MIC [5, 15]: 0.125 µg/mL (≈ 0.148 µM); MIC [5, 16]: 2 µg/mL (≈ 2.38 µM); MIC [5, 17]: > 32 µg/mL; MIC [5, 18]: > 32 µg/mL; MIC [5, 19]: ≤ 0.0625 µg/mL; MIC [6]: 0.125 µg/mL (≈ 0.148 µM); MIC [7]: 32 µg/mL (≈ 38 µM); MIC [8]: 2 µg/mL (≈ 2.38 µM); MIC [9, 20]: 0.5 µg/mL (≈ 0.594 µM); MIC [9, 21]: 2 µg/mL (≈ 2.38 µM)

Which MIC [1, 10] does the source give for CC[C@H]1OC(=O)CC(=O)[C@H](C)[C@@H](O[C@@H]2OC(C)CC(N(C)C)C2O)[C@](C)(OC)C[C@@H](C)CN[C@H](C)[C@H]2N(CCCCn3cc(-c4cccc(N)c4)nn3)C(=O)O[C@]12C (stereo partly shown) [FSM-56133] here?
Its MIC is 4 µg/mL (≈ 4.91 µM).

What about the MIC ([2]; round 2, read-out: MIC) of the same compound?
The MIC was 8 µg/mL (≈ 9.83 µM).

What about the MIC [3] of the same compound?
Its MIC is 8 µg/mL (≈ 9.83 µM).

And the MIC [4, 11]?
The MIC was 4 µg/mL (≈ 4.91 µM).

What about the MIC [4, 12] of the same compound?
Its MIC is greater than 32 µg/mL.

And the MIC [4, 13]?
The MIC was 4 µg/mL (≈ 4.91 µM).

And the MIC [4, 14]?
The MIC was 8 µg/mL (≈ 9.83 µM).

What about the MIC [5, 15] of the same compound?
Its MIC is 0.5 µg/mL (≈ 0.614 µM).

And the MIC [5, 16]?
The MIC was greater than 32 µg/mL.

And the MIC [5, 17]?
The MIC was greater than 32 µg/mL.

What about the MIC [5, 18] of the same compound?
Its MIC is greater than 32 µg/mL.

And the MIC [5, 19]?
The MIC was 1 µg/mL (≈ 1.23 µM).

What about the MIC [6] of the same compound?
Its MIC is 0.5 µg/mL (≈ 0.614 µM).

What about the MIC [7] of the same compound?
The MIC was 32 µg/mL (≈ 39.3 µM).

And the MIC [8]?
Its MIC is 2 µg/mL (≈ 2.46 µM).

And the MIC [9, 20]?
The MIC was 1 µg/mL (≈ 1.23 µM).

And the MIC [9, 21]?
The MIC was 4 µg/mL (≈ 4.91 µM).

Which results are given for C=CC[C@H]1C(=O)O[C@H](CC)[C@@]2(C)OC(=O)N(CCCCn3cc(-c4cccc(N)c4)nn3)[C@@H]2[C@@H](C)NC[C@H](C)C[C@@](C)(OC)[C@H](O[C@@H]2OC(C)CC(N(C)C)C2O)[C@@H](C)C1=O (stereo partly shown) [FSM-56156]?
MIC [1, 10]: 2 µg/mL (≈ 2.34 µM); MIC ([2]; round 2, read-out: MIC): 4 µg/mL (≈ 4.68 µM); MIC [3]: 16 µg/mL (≈ 18.7 µM); MIC [4, 11]: 4 µg/mL (≈ 4.68 µM); MIC [4, 12]: > 32 µg/mL; MIC [4, 13]: 4 µg/mL (≈ 4.68 µM); MIC [4, 14]: 8 µg/mL (≈ 9.37 µM); MIC [5, 15]: 0.25 µg/mL (≈ 0.293 µM); MIC [5, 16]: 8 µg/mL (≈ 9.37 µM); MIC [5, 17]: > 32 µg/mL; MIC [5, 18]: > 32 µg/mL; MIC [5, 19]: 1 µg/mL (≈ 1.17 µM); MIC [6]: 1 µg/mL (≈ 1.17 µM); MIC [7]: 32 µg/mL (≈ 37.5 µM); MIC [8]: 4 µg/mL (≈ 4.68 µM); MIC [9, 20]: 2 µg/mL (≈ 2.34 µM); MIC [9, 21]: 8 µg/mL (≈ 9.37 µM)
